# From patent US7297790B2, “Anhydrous mirtazapine crystals and process for preparing the same” (Sumitomo Chemical Company, Limited, priority 1999, dated 2007)
# Assay: Hygroscopic degree of crystals stored at constant temperature and humidity (petri dish, weight gain)
# Format: physicochemical
# Settings: 75% relative humidity, chamber temperature 25° C., after 500 hours; compared with Comparative Example 3
# Description: Next, the mirtazapine crystals obtained in Example 7 and Comparative Example 3 were placed on a petri dish, and the petri dish was placed in a constant temperature and humidity of 75% relative humidity and a chamber temperature of 25° C., and the change in the hygroscopic degree of the crystals was evaluated. Incidentally, the hygroscopic degree is calculated by the following equation: [Hygroscopic Degree (% by weight)]=[(Weight (g) of Crystals After Treatment)−(Weight (g) of Crystals Before Treatment)]÷[Weight (g) of Crystals Before Treatment]×100
smiles,measurement,value
"CN1CCN2c3ncccc3Cc3ccccc3C2C1 (stereo not shown) [Example 7, anhydrous mirtazapine]","hygroscopic degree with the passage of time (FIG. 2), in words",very low
